This assay deals with glycogen synthase. The assay is described as follows: Glycogen Synthase (GS) Assay. Format: biochemical. Conditions: for pEC50: compound concentration needed to give 50% maximum activation; for GS SC200: compound concentration needed to stimulate 200% of the enzyme activity. As to the method:
The following tests were carried out in order to determine the activity of the compounds of formula (I).
Twelve μL per well of substrate solution containing glycogen (4.32 mg/mL), 2.67 mM UDP-glucose, 21.6 mM phospho(enol)pyruvate and 2.7 mM NADH in 30 mM glycylglycine, pH 7.3 buffer was added into a polystyrene 384-well assay plate (BD Biosciences).
Compound solutions (8 μL/well) at various concentrations (0-300 μM) were added to the assay plate (columns 5-24). Compound solution contains 30 mM glycylglycine, pH 7.3, 40 mM KCl, 20 mM MgC12, 9.2% DMSO, with (columns 15-24) or without (columns 5-14) 20 mM glucose 6-phosphate.
Enzyme solution (12 μL/well) containing glycogen synthase (16.88 μg/mL), pyruvate kinase (0.27 mg/mL), lactate dehydrogenase (0.27 mg/mL) in 50 mM Tris-HCl, pH 8.0, 27 mM DTT and bovine serum albumin (BSA, 0.2 mg/mL) was added to the assay plate (columns 3-24). As a blank control, enzyme solution without glycogen synthase was added into the top half wells of columns 1-2. To the bottom half wells of columns 1-2 were added a known activator, glucose 6-phosphate (at final concentration 5 mM) in addition to the enzyme solution. The reaction mixture was incubated at room temperature. The assay plate was then read for absorbance at 340 nm on an Envision reader every 3 minutes up to a total of 15 minutes.
The enzyme activity (with or without compound) was calculated by the reaction rate and represented by the optical density change (SOD) per minute. Percent stimulation of glycogen synthase activity by a compound at various concentrations was calculated by the following formula: […]
where Rs is the reaction rate of the enzyme in the presence of compound and Rt is the reaction rate of the enzyme in the absence of compound.
SC200 is defined as the compound concentration that is needed to stimulate 200% of the enzyme activity. EC50 is defined as the compound concentration that is needed to give 50% maximum activation.
Compounds from Example 1 through Example 36 were assayed according to assay procedures described above and the results are listed in Table 1 below: […]

SMILES strings stand for the structures. pEC50: −log10 of the molar value.

As usually defined, the pEC50 is the EC50 on a negative log10 scale, so that one unit is a factor of ten. High values mean a low EC50, low ones a high EC50. Turning to `COc1cc(F)c(F)cc1-c1ccc(OCC2CCCN(C(=O)N(CCC(=O)O)Cc3ccccc3)C2)cc1` (stereo not shown) [Example 28, 3-{Benzyl-[3-(4′,5′-difluoro-2′-methoxy-biphenyl-4-yloxymethyl)-piperidine-1-carbonyl]-amino}-propionic acid], the pEC50 was 5.20 and the “GS SC200” value amounted to 2.52 µM.

As to `COc1cc(F)c(F)cc1-c1ccc(OC[C@H]2CCCN(C(=O)N(C)CC(=O)NS(C)(=O)=O)C2)cc1` [Example 32, (S)-3-(4′,5′-Difluoro-2′-methoxy-biphenyl-4-yloxymethyl)-piperidine-1-carboxylic acid (2-methanesulfonylamino-2-oxo-ethyl)-methyl-amide], the pEC50 is 6.70 and the “GS SC200” value was 0.06 µM.

Turning to `COc1cc(F)c(F)cc1-c1ccc(OC[C@@H]2CCCN(C(=O)CC(=O)O)C2)cc1` (single isomer, unassigned) [Example 4], the negative-log EC50 (pEC50) is 5.76 and the “GS SC200” value was 1.18 µM.

For `CONC(=O)CC(=O)N1CCCC(COc2ccc(-c3cc(F)c(F)cc3OC)cc2)C1` (stereo not shown) [Example 5, 3-[3-(4′,5′-Difluoro-2′-methoxy-biphenyl-4-yloxymethyl)-piperidin-1-yl]-N-methoxy-3-oxo-propionamide], the pEC50 is 5.19 and the “GS SC200” value stood at 0.99 µM.

As for `COc1cc(F)c(F)cc1-c1ccc(OCC2CCCN(C(=O)[C@H](CC(=O)O)N(C)C(C)=O)C2)cc1` (stereo partly drawn) [Example 13, (S)-3-(Acetyl-methyl-amino)-4-[3-(4′,5′-difluoro-2′-methoxy-biphenyl-4-yloxymethyl)-piperidin-1-yl]-4-oxo-butyric acid], the negative-log EC50 (pEC50) was 4.91 and the “GS SC200” value was 2.12 µM.

Take `CCC(C(=O)O)C(=O)N1CCCC(COc2ccc(-c3cc(F)c(F)cc3OC)cc2)C1` (stereo not shown) [Example 18, 2-[3-(4′,5′-Difluoro-2′-methoxy-biphenyl-4-yloxymethyl)-piperidine-1-carbonyl]-butyric acid]: the negative-log EC50 (pEC50) was 6.01.

For `COc1cc(F)c(F)cc1-c1ccc(OCC2CCCN(C(=O)N(C)CC(=O)O)C2)cc1` (stereo not shown) [Example 25, {[3-(4′,5′-Difluoro-2′-methoxy-biphenyl-4-yloxymethyl)-piperidine-1-carbonyl]-methyl-amino}-acetic acid], the pEC50 is 6.54 and the “GS SC200” value is 0.02 µM.

For `COc1cc(F)c(F)cc1-c1ccc(OCC2CCCN(C(=O)[C@@H](CC(=O)O)NC(C)=O)C2)cc1` (stereo partly drawn) [Example 11, (R)-3-Acetylamino-4-[3-(4′,5′-difluoro-2′-methoxy-biphenyl-4-yloxymethyl)-piperidin-1-yl]-4-oxo-butyric acid], the pEC50 is 5.71 and the “GS SC200” value came out at 0.42 µM.

The compound `COc1cc(F)c(F)cc1-c1ccc(OCC2CCCN(C(=O)C3CCS(=O)(=O)N3)C2)cc1` (stereo not shown) [Example 21, [3-(4′,5′-Difluoro-2′-methoxy-biphenyl-4-yloxymethyl)-piperidin-1-yl]-(1,1-dioxido-3-isothiazolidin-3-yl)-methanone] had a pEC50 of 5.14.

As for `COc1cc(F)c(F)cc1-c1ccc(OCC2CCCN(C(=O)C(C(=O)O)C(C)(C)C)C2)cc1` (stereo not shown) [Example 19, 2-[3-(4′,5′-Difluoro-2′-methoxy-biphenyl-4-yloxymethyl)-piperidine-1-carbonyl]-3,3-dimethyl-butyric acid], the pEC50 is 5.27 and the “GS SC200” value stood at 2.21 µM.

Regarding `COc1cc(F)c(F)cc1-c1ccc(OCC2CCCN(C(=O)C3CN(C(=O)OC(C)(C)C)CC3C(=O)O)C2)cc1` (stereo not shown) [Example 14, 4-[3-(4′,5′-Difluoro-2′-methoxy-biphenyl-4-yloxymethyl)-piperidine-1-carbonyl]-pyrrolidine-1,3-dicarboxylic acid 1-tert-butyl ester], the pEC50 was 5.43 and the “GS SC200” value is 1.94 µM.

As for `COc1cc(F)c(F)cc1-c1ccc(OCC2CCCN(C(=O)CC(N)=O)C2)cc1` (stereo not shown) [Example 20, 3-[3-(4′,5′-Difluoro-2′-methoxy-biphenyl-4-yloxymethyl)-piperidin-1-yl]-3-oxo-propionamide], the pEC50 was 4.89 and the “GS SC200” value was determined as 6.34 µM.

Values taken from patent publication US20110118314A1, “PIPERIDINE ANALOGS AS GLYCOGEN SYNTHASE ACTIVATORS” (priority 2009, published 2011).
